What was measured:
PDE7A = target: T1, PDE7A (Homo sapiens, UniProt Q13946); test: Recombinant PDE activity, scintillation proximity assay: PDE7A; type: biochemical; conditions: calculated IC50
T1 construct: made in house; host or cells: SF9 insect cells (baculovirus, Bac-To-Bac, pFastbac)
From the text: For the preparation of human recombinant PDEs of interest, the Bac-To-Bac baculoviral expression system from Invitrogen (Carlsbad, CA, United States) was used according to the instruction manual. In short, the full-length open reading frames of PDE1C (National Center for Biotechnology Information Gene-Ref-Seq identifier NG_051183), PDE3A (NG_030033), PDE4A (NG_029594, AA 156–886), PDE4C (NG_029629), PDE7A (NG_029614), and PDE9A (NG_047067) were cloned into the plasmid vector pFastbac. For PDE4B and PDE4D, active site fragments were used (PDE4B NG_029038: AA 152–484, PDE4D NG_027957, AA 79–438). The plasmids were transformed into DH10Bac bacteria, SF9 insect cells were transfected with the bacmid DNA, and the resulting baculoviruses were stored and used for further rounds of infections. […] The protein content was measured and an equal volume of 87% (v/v) glycerol was added prior to freezing at −20°C. […] The reaction was stopped by addition of 50 µL of yttrium silicate scintillation proximity assay beads (17.8 mg/mL, 18 mM zinc sulfate in H2O) and the amount of produced [^3H]AMP/[^3H]GMP associated was determined using a Wallac Microbeta scintillation counter. […]

[1] = test system: LPS-induced TNF-α release; test: LPS-induced TNF-α release in human PBMCs; type: cell-based; conditions: 100 ng/mL LPS for 4 h
Method: Blood was donated by internal donors at the Center for Occupational Health at Boehringer Ingelheim in Biberach an der Riss, Germany; the donors provided signed informed consent that allows use for scientific purposes. All research was performed in accordance with the principles stated in the Declaration of Helsinki. Ethical approval was provided by the Federal State Medical Association of Baden-Württemberg, reference no. F-2016–121. For preparation of peripheral blood mononuclear cells (PBMCs), 200 mL freshly drawn human blood from healthy donors was mixed with 50 mL acid-citrate-dextrose solution (38 mmol/L citric acid, 75 mmol/L tri-sodium citrate and 121 mmol/L glucose) and 50 mL Hanks buffered saline solution (Thermo Fisher Scientific, Carlsbad, CA, United States), overlaid on Ficoll and centrifuged for 30 min at 300 x g. PBMCs were diluted in RPMI-1640 medium (Thermo Fisher Scientific) containing 6% (v/v) autologous plasma to a concentration of 5 × 10^6 cells/mL. […] Supernatants were taken and cytokines measured by enzyme-linked immunosorbent assay (ELISA; Becton Dickinson, Franklin Lakes, NJ, United States).

α-SMA protein expression = α-SMA protein expression of TGF-β-stimulated IPF lung fibroblasts (Western blot replacement assay); type: cell-based, human
Method: (§1) Fibroblasts from donors with IPF (IPF-LF) (Asterand, Detroit, MI, United States) were grown in fibroblast basal medium (CC-3131, Lonza Walkersville, Inc., Walkersville, MD, United States) supplemented with FGM-2 SingleQuot Kit Supplements and Growth Factors (CC-4126, Lonza). Cells were grown in a humidified incubator at 37°C and 5% CO2. All assays were performed at passage 7 or 8. For assay set-up, cells were seeded in fibroblast growth medium plus supplements in assay-relevant densities. For TGF-β-stimulated assays, cells were seeded at 4,500 cells per well in 96-well plates. Proliferation assays were performed in 96-well plates at an initial seeding cell density on day 0 of 2,000 cells per well. After 24-h, the cell culture medium was changed to starvation medium (fibroblast basal medium without supplements). After a 24-h starvation period, cells were pre-incubated for 30 min with different concentrations of BI 1015550 plus/minus different concentrations of nintedanib and/or 1 nmol/L PGE2 and stimulated with the assay-relevant stimulus for the indicated time in the presence of the compound.
For determination of α-SMA protein expression, IPF-LF cells were stimulated with TGF-β (4 ng/mL) for 48 h. Lysates were assayed in a Western blot replacement assay (MSD). In short, lysates were pipetted onto high binding plates (MSD) and were sequentially incubated with a mouse anti-human α-SMA antibody (Sigma Aldrich) and an anti-mouse sulfo-tag antibody (MSD). For analysis, an MSD sector imager was used.

Col3A1 mRNA expression = test: TGF-β-induced Col3A1 mRNA expression in IPF lung fibroblasts (Taqman); type: cell-based, human
Method: as §1, with “After a 24-h starvation period, cells were pre-incubated for 30 min with different concentrations of BI 1015550 plus/minus different concentrations of nintedanib and/or 1 nmol/L PGE2 and stimulated with the assay-relevant stimulus for the indicated time in the presence of the compound.” left out
For determination of Col1A1, Col3A1, and FN mRNA expression, IPF-LF cells were stimulated with TGF-β (4 ng/mL) for 48 h. […] Quantitative real-time polymerase chain reactions were set up using the TaqMan™ Fast Advanced Master Mix (Applied Biosystems, Carlsbad, CA, United States) and species-specific gene expression assays: Col1A1 #Hs00164004_m1 FAM, Col3A1 #Hs0094309_m1 FAM, FN #Hs01549976_m1 FAM, 18S #4310893E. […] Fold-change of gene expression was calculated by the Viia7 software (regulation based upon housekeeper).

Plasma protein binding = type: in vitro ADME

T1 sequence (Q13946 whole entry): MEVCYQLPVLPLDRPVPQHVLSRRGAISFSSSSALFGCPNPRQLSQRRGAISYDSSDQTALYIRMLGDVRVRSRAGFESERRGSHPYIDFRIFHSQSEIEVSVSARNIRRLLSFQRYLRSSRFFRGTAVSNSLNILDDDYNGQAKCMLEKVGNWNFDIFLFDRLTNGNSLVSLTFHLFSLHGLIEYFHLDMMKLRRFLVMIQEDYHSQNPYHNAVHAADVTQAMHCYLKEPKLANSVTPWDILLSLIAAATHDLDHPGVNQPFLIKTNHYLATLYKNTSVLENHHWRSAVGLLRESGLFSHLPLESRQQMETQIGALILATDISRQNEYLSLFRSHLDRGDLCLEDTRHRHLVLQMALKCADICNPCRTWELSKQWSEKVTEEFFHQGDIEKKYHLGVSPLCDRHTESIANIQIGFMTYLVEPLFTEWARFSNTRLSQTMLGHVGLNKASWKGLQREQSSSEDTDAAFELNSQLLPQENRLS

IC50 (PDE7A): 14000 nM
IC50 [1]: 35 nM
Plasma protein binding (Plasma protein binding): 77%
SMILES: [O-][S+]1CCc2nc(N3CCC(c4ncc(Cl)cn4)CC3)nc(NC3(CO)CCC3)c21 (centres unmarked) [BI 1015550]
IC50 (α-SMA protein expression; TGF-β (4 ng/mL, 48 h)-stimulated IPF-LF): 210 nM
Additional inhibitory efficacy on α-SMA protein expression in combination (α-SMA protein expression; combination with nintedanib 10–100 nmol/L): did not result in additional inhibitory efficacy
Additional inhibitory effects in combination, myofibroblast transformation assay (α-SMA protein expression; combination with pirfenidone (100 µmol/L), data not shown): did not yield any additional inhibitory effects
IC50 (Col3A1 mRNA expression; IPF-LF, TGF-β 4 ng/mL, 48 h, read-out: IC50 TGF-β-induced Col3 mRNA expression): 213 nM
Combination effect in inhibiting Col3 mRNA expression (Col3A1 mRNA expression; combination with nintedanib at 100 nmol/L): additive effects

From article PMC9065678, “BI 1015550 is a PDE4B Inhibitor and a Clinical Drug Candidate for the Oral Treatment of Idiopathic Pulmonary Fibrosis” (Frontiers in Pharmacology, 2022)
